# Results published in the supplement of paper PMC10307832.
# Assays:
# Experiment in all cases: relative viability (nuclei count vs DMSO), 5 days (fraction); higher = more cells survive
# Venetoclax + Bortezomib = compound: CC1(C)CCC(CN2CCN(c3ccc(C(=O)NS(=O)(=O)c4ccc(NCC5CCOCC5)c([N+](=O)[O-])c4)c(Oc4cnc5[nH]ccc5c4)c3)CC2)=C(c2ccc(Cl)cc2)C1 [Venetoclax] + CC(C)C[C@H](NC(=O)[C@H](Cc1ccccc1)NC(=O)c1cnccn1)B(O)O [Bortezomib] (partner 0.002 µM)
# In short: (§1)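 Relative viability equals treated-well nuclei counts divided by vehicle-well nuclei counts. Counts came from 4× images of lung cancer cell lines grown in 1536-well plates for 5 days after pin-tool dosing on the day after seeding. Dosing used one drug alone or a fixed anchor-drug dose plus five library-drug doses (not always all listed) in √10 steps, and values are medians of duplicate plates.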
# Venetoclax + Navitoclax = compound: CC1(C)CCC(CN2CCN(c3ccc(C(=O)NS(=O)(=O)c4ccc(NCC5CCOCC5)c([N+](=O)[O-])c4)c(Oc4cnc5[nH]ccc5c4)c3)CC2)=C(c2ccc(Cl)cc2)C1 [Venetoclax] + CC1(C)CCC(c2ccc(Cl)cc2)=C(CN2CCN(c3ccc(C(=O)NS(=O)(=O)c4ccc(N[C@H](CCN5CCOCC5)CSc5ccccc5)c(S(=O)(=O)C(F)(F)F)c4)cc3)CC2)C1 [Navitoclax] (partner 0.5 µM)
# In short: as §1
# Venetoclax + Linsitinib = compound: CC1(C)CCC(CN2CCN(c3ccc(C(=O)NS(=O)(=O)c4ccc(NCC5CCOCC5)c([N+](=O)[O-])c4)c(Oc4cnc5[nH]ccc5c4)c3)CC2)=C(c2ccc(Cl)cc2)C1 [Venetoclax] + C[C@]1(O)C[C@@H](c2nc(-c3ccc4ccc(-c5ccccc5)nc4c3)c3c(N)nccn32)C1 [Linsitinib] (partner 1 µM)
# In short: as §1
# Selumetinib + Alpelisib = compound: Cn1cnc2c(F)c(Nc3ccc(Br)cc3Cl)c(C(=O)NOCCO)cc21 [Selumetinib] + Cc1nc(NC(=O)N2CCC[C@H]2C(N)=O)sc1-c1ccnc(C(C)(C)C(F)(F)F)c1 [Alpelisib] (partner 2 µM)
# In short: as §1
cell line,measurement,setting,value
UMC-11,relative viability,Venetoclax + Bortezomib; first compound 0.01 µM,0.625
same,relative viability,Venetoclax + Bortezomib; first compound 0.03162 µM,0.889
same,relative viability,Venetoclax + Bortezomib; first compound 0.1 µM,0.604
same,relative viability,Venetoclax + Bortezomib; first compound 0.3162 µM,0.732
same,relative viability,Venetoclax + Bortezomib; first compound 1 µM,0.691
same,relative viability,Venetoclax + Navitoclax; first compound 0.01 µM,0.307
same,relative viability,Venetoclax + Navitoclax; first compound 0.03162 µM,0.31
same,relative viability,Venetoclax + Navitoclax; first compound 0.1 µM,0.255
same,relative viability,Venetoclax + Navitoclax; first compound 0.3162 µM,0.284
same,relative viability,Venetoclax + Navitoclax; first compound 1 µM,0.249
same,relative viability,Venetoclax + Linsitinib; first compound 0.01 µM,1
same,relative viability,Venetoclax + Linsitinib; first compound 0.03162 µM,1.01
same,relative viability,Venetoclax + Linsitinib; first compound 0.1 µM,0.912
same,relative viability,Venetoclax + Linsitinib; first compound 0.3162 µM,0.932
same,relative viability,Venetoclax + Linsitinib; first compound 1 µM,0.959
same,relative viability,Selumetinib + Alpelisib; first compound 0.02 µM,0.97
same,relative viability,Selumetinib + Alpelisib; first compound 0.06325 µM,1.1
same,relative viability,Selumetinib + Alpelisib; first compound 0.2 µM,1.01
same,relative viability,Selumetinib + Alpelisib; first compound 0.6325 µM,0.986
